These results are taken from PubChem BioAssay AID504642 (Southern Research Specialized Biocontainment Screening …, 2011).

The source made the active and inactive calls. The rule behind the calls is not given here. Where only a bound is given, the exact number is not on record here.

Tested on in one assay: not listed separately
Nature of the assay: cytotoxicity in HepG2 cells, cytotoxicity control, cell-based (AID 504642). The conditions noted are these: HepG2 viability, cytotoxicity counter-screen; at 25 µM (top of the series).
Broadly, the viability is a read-out of living cells in per cent, often relative to untreated cells. As to `COC(=O)C(Nc1nc(SCC(=O)NC2CCCCC2)nc2ccccc12)c1ccccc1` (stereo unspecified), the viability is 100% (inactive).
Same read-out and setting: with `O=C(/C=C/c1ccccc1)N1CCN(CCN2C(=O)c3cccc4cccc(c34)C2=O)CC1` the figure was 91.1% (inactive).

Staying with this assay, now noted: HepG2 viability, cytotoxicity counter-screen; at 50 µM (top of the series).
As to `CCOC(=O)COn1c2c(c3c4no[n+]([O-])c4ccc31)CCCC2`, the viability was 85.5% (inactive).
Regarding `CCOC1OC(=O)C(Cl)=C1Nc1ccccc1C` (stereo unspecified), the viability is 97.8% (inactive).
Same read-out and setting: the figure for `COC(=O)CCc1nc2c(C#N)c(-c3ccc(Cl)cc3)ccn2n1` is 102% (inactive).
Same read-out and setting: with `COc1cc(NC(=O)C/C(C)=N/NC(=O)c2ccccn2)c(OC)cc1Cl` the figure was 86.2% (inactive); with `CCc1ccc(/C=C2/C(=O)N(C)C(=S)N2CC(=O)OC)s1`, 78.9% (inactive).
In the case of `O=C(CSc1nc2ccccc2c(=O)[nH]1)NCc1ccc(Cl)cc1`, the viability is 90.7% (inactive).
Still for that read-out and setting: the figure for `O=C(/C=C\c1cccs1)N1CCN(Cc2ccc3c(c2)OCO3)CC1` is 84.1% (inactive).
The same measure, in the same setting: with `CC1CCN(C(=O)C2CCN(c3nnc(-n4cccc4)s3)CC2)CC1` the figure was 81.6% (inactive).
The same measure, in the same setting: the figure for `Cc1ccc(NC(=O)C2C3/C=C\CCCCC32)cc1C` (stereo unspecified) is 101% (inactive); for `CC[N+](C)(CC)CCCCOc1ccc2c(c1)C(=O)c1cc(OCCCC[N+](C)(CC)CC)ccc1-2` it is 93.8% (inactive); for `CCOC(=O)CNC(=O)[C@H](Cc1ccccc1)NC(=O)OCc1ccccc1` it is 97.3% (inactive).
On to `CCOC(=O)C(C)Sc1ncnc2c1nnn2-c1ccc(F)cc1` (stereo unspecified), for which the viability was 94.1% (inactive).
On the same count and under the same terms, the figure for `COC(=O)C(C)Oc1ccc(-c2nccc(-c3ccccn3)n2)cc1` (stereo unspecified) is 95.4% (inactive); for `COC(=O)C1CC(=O)N(c2ccc(OCc3ccccc3Cl)cc2)C1` (stereo unspecified) it is 98.6% (inactive).
Still for that read-out and setting: with `COC(=O)c1ccc(CNc2c(N3CCCC3)c(=O)c2=O)cc1` the figure was 97.5% (inactive); with `CC(=NCc1ccc2c(c1)OCO2)C1=C(O)c2ccccc2C1=O`, 96.6% (inactive).
The same measure, in the same setting: the figure for `Cc1nc(SCC(=O)NC2CCCCC2)[nH]c(=O)c1C` is 105% (inactive); for `CCOC(=O)COc1ccc(/C=C2\NC(=S)N(CC)C2=O)cc1` it is 94.6% (inactive); for `O=C(CSc1nc2ccccc2c(=O)[nH]1)NC1CCCCC1` it is 103% (inactive).
With `O=C1C(Br)=Cc2cccc3cccc1c23`, the viability is 86.1% (inactive).

For the next assay, the system named is HepG2 viability, cytotoxicity counter-screen. Described as above.
Details: not given
The term CC50 denotes the concentration that lowers cell viability or growth by half. Turning to `Cc1ccc2ccc3ccc(C)nc3c2n1`, the CC50 was less than 0.195 µM.
On the same count and under the same terms, with `CCOC(=O)c1ccc(NC(=O)Cn2ncc(Cl)c(Cl)c2=O)cc1` the figure was 8.43 µM; with `Cc1ccc2c(c1)c(C1=c3ccccc3=NC1=O)c(O)n2C`, 12.9 µM; with `CC(C)NC(=O)c1sc(=S)n2c1[nH]c(=O)c1ccc(C(=O)NCCc3ccc(Cl)cc3)cc12`, 46.1 µM.
On the same count and under the same terms, with `Cc1cccc(-c2oc3ccc(-c4ccc5c(c4)OCO5)cc3c2C#Cc2cncn2C)c1` the figure was 44.4 µM; with `Cc1cccc(/C=C/C(=O)c2ccc([N+](=O)[O-])o2)c1`, 7.91 µM; with `Oc1ccccc1/C=N/Nc1ccnc(SCc2ccccc2)n1`, 20.1 µM.
The same measure, in the same setting: with `S=c1nc[nH]c2nc[nH]c12` the figure was 7.74 µM.
Regarding `Cc1nn2c(NCc3ccccn3)cc(C(C)C)nc2c1-c1ccccc1`, the cytotoxic concentration (CC50) is less than 0.098 µM.
As for `Cc1ccc(C(=O)N/N=C(/CC(=O)c2cccs2)C(F)(F)F)cc1`, the CC50 is 27.5 µM.
Same read-out and setting: with `CNc1nc(SCc2ccccc2Cl)nc2c1CCCC2` the figure was 26.2 µM; with `c1ccc(/N=C2\N=C(Nc3ccccn3)c3ccccc32)nc1`, less than 0.098 µM; with `CCC(C)Nc1ccc(NC(C)CC)cc1` (stereo unspecified), 6.41 µM.
Same read-out and setting: with `COC(=O)c1cc(=O)n(-c2ccc(F)cc2)c(=Nc2ccc(F)cc2)s1` the figure was 19.4 µM.
